Assay results as given in US9833431B2, “Pharmaceutical combinations for the treatment of cancer” (Pitney Pharmaceuticals Pty Limited, priority 2013, dated 2017).

Tests used:
OVCAR-3 = test: SRB cytotoxicity / proliferation assay, OVCAR-3 cells; conditions: for significant cytotoxic effect of MPL alone: OVCAR-3 cells
Description: Cells were seeded in 96-well plates (2,000-3,000 cells/well) and culture overnight prior to treatment with MPL. Control cultures were treated with ethanol alone.
Cytotoxicity was assessed using the sulforhodamine B (SRB) assay and reported as half maximal inhibitory concentration (IC50; Table 3). Cells were seeded in 96-well plates (2,000-3,000 cells/well), treated with the indicated compound(s) for 72 h, fixed, washed and stained with 100 μl of 0.4% (w/v) SRB dissolved in 1% acetic acid. Unbound dye was removed by five washes with 1% acetic acid before air-drying.
In order to evaluate the effect of MPL on the in vitro efficacy of an established drug was evaluated using cell viability and cell proliferation assays. Cell viability was conducted according to standard Trypan Blue method. Cell proliferation was assessed using the sulforhodamine B (SRB) assay. For viability experiments, cells were seeded in 6 well plates, whereas for proliferation assays cells were grown in 96 well plates. Following over-night attachment, cells were treated with the intended drug at various concentrations either alone or in combination with monepantel (MPL) for 72 h. Parallel to this, cells treated with MPL alone were also deployed for comparative purposes. Following incubation for 72 h in a standard cell culture incubator, effect of mono and combined drug treatments on cell viability and/or cell proliferation was assessed through using Trypan Blue or SRB assays respectively.
For viability assay, at the end of treatment period, cells were washed with PBS, trypsinized and counted using Trypan blue and hemocytometer. For the SRB assay cells were fixed, washed and stained with 100 μl of 0.4% (w/v) SRB dissolved in 1% acetic acid. Unbound dye was removed by five washes with 1% acetic acid before air drying. […] Monepantel (gift by Novartis, Basel, Switzerland) was dissolved in 100% ethanol and then diluted with the cell culture media.
MPL (5 μM) and combination drugs were applied for 72 h unless indicated.

IGROV-1 = test: SRB cytotoxicity assay, IGROV-1 cells; type: cell-based; conditions: Homo sapiens, IGROV-1, malignant, ovarian, 72 h
Description: (§1) All cell lines described herein were purchased from ATCC. […] Control cultures were treated with ethanol alone.

LNCaP = test: SRB cytotoxicity assay, LNCaP cells; type: cell-based, human; conditions: 72 h
Description: as §1

[1] = tested on: HUVEC, human fetal astrocytes and HOSE cells; test: SRB cytotoxicity assay, summary over early/primary passage cells; type: cell-based; conditions: summary of Table 3, read-out: IC50 proliferation
Description: as §1

SKOV-3 = test: SRB cytotoxicity assay, SKOV-3 cells; type: cell-based; conditions: Homo sapiens, SK-OV-3, SKOV-3, malignant, ovarian, 72 h
Description: as §1

[2] = tested on: immortalized cell lines and the CFPAC-1 and SKOV-3 cell lines; test: SRB cytotoxicity assay, summary over immortalized lines; type: cell-based; conditions: all immortalized cell lines and CFPAC-1 and SKOV-3; summary of Table 3; read-out: IC50 proliferation
Description: as §1

SMILES: C[C@](C#N)(COc1cc(C#N)ccc1C(F)(F)F)NC(=O)c1ccc(SC(F)(F)F)cc1 [MPL, N-[(1S)-1-cyano-2-(5-cyano-2-trifluoromethyl-phenoxy)-1-methyl-ethyl]-4-trifluoromethylsulfanyl-benzamide]
- IC50 (OVCAR-3; Homo sapiens, OVCAR-3, 72 h): 6.3 ± 0.8 µM
- Mpl Alone, Mpl (x/X) Inhibition (OVCAR-3; OVCAR-3, 5 μM MPL, 72 h, x=events, X=experiments, Table 7): (3/3)
- Mpl Alone, Mpl (x/X) Inhibition (OVCAR-3; OVCAR-3, 5 or 10 μM MPL, 72 h, Table 8 lower panel, same MPL control for serotonin and wortmannin): (2/2)^2
- Mpl Alone, Mpl (x/X) Inhibition (OVCAR-3; OVCAR-3, 5 or 10 μM MPL, 72 h, Table 8 upper panel, x=events, X=experiments): (5/5)
- A) Single treatment, one symbol per experiment (OVCAR-3; OVCAR-3, MPL (5 μM), 72 h): ✓✓✓✓✓✓
- Mpl Alone, Mpl (x/X) Inhibition (OVCAR-3; OVCAR-3 Ovarian, 5 μM MPL, 72 h, x=events, X=experiments, Table 6): 4/4
- significant cytotoxic effect of MPL alone (OVCAR-3; MPL 2.5 μM, 1/1 experiments): but not 2.5 μM alone
- significant cytotoxic effect of MPL alone (OVCAR-3; MPL 5 μM, 6/6 experiments): significant cytotoxic effect
- IC50 (IGROV-1): 4.4 ± 0.3 µM
- IC50 (LNCaP; Homo sapiens, LNCaP, malignant, prostatic, SRB): 7.3 µM
- Mpl Alone, Mpl (x/X) Inhibition (LNCaP; LNCAP Prostate, 5 μM MPL, x=events, X=experiments): 1/1
- IC50 [1]: > 85 µM
- IC50 (SKOV-3): 31.2 ± 0.8 µM
- IC50 [2]: 12 to 35 µM
